pEC50: −log10 of the molar value.
What was measured:
[1] = target: T1, human toll like receptor 8 (hTLR8) (Homo sapiens, UniProt Q9NR97); assay: hTLR8 cell functional assay (HEK-Blue hTLR8 SEAP reporter); type: cell-based; conditions: HEK293 cells stably overexpressing hTLR8, SEAP reporter; geometric mean when tested more than once
T1 construct: host or cells: HEK293 (HEK-Blue hTLR8)
T1 sequence (Q9NR97 27-1041): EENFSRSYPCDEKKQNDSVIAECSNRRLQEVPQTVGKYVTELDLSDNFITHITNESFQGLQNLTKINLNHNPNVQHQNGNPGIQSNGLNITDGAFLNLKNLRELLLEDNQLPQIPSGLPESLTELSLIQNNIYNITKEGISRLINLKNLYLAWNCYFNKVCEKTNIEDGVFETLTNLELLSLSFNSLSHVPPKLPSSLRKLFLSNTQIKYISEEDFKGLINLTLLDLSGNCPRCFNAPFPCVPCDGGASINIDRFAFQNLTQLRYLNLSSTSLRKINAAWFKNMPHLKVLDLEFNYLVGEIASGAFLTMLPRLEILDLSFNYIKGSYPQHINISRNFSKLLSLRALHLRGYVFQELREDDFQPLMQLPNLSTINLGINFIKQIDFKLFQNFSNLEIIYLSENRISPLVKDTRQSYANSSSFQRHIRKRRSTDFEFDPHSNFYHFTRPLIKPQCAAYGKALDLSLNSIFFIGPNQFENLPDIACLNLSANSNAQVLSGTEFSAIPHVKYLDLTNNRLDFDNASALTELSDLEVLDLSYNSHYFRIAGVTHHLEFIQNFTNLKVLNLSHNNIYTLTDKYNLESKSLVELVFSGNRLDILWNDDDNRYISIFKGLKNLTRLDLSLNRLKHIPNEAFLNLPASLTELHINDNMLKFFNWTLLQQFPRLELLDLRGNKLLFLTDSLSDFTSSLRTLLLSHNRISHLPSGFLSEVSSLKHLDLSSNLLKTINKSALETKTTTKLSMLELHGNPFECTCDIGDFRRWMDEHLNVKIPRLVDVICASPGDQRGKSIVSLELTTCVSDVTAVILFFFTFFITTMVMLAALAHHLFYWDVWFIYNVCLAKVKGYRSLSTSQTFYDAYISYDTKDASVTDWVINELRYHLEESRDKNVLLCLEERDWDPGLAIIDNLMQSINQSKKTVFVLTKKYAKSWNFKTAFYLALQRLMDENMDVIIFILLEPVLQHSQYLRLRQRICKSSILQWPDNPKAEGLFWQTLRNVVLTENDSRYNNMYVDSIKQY
Description: (§1) The Examples described were tested for biological activity in functional cellular assays using HEK293 cells stably overexpressing human TLR7 or TLR8. The assays tested for the ability of each Example to stimulate secretion of interferon alpha (IFNα) in human primary blood mono nuclear cells (PBMC).
(§2) To determine the ability of each Example to activate the human toll like receptor 7 (hTLR7) or human toll like receptor 8 (hTLR8), cell-based reporter systems were utilized. HEK293 cells stably overexpressing either hTLR7 or hTLR8 along with a reporter gene containing an optimized secreted embryonic alkaline phosphatase gene (SEAP), under the control of the IFN-b minimal promoter fused to five NF-κB and AP-1-binding sites, were obtained from Invivogen (HEK-Blue™ hTLR7, cat #Hkb-ht1r7; HEK-Blue™ hTLR8, cat #Hkb-ht1r8). Stimulation of hTLR7 or hTLR8 in these cells activates NF-κB and AP-1 and induces the production of SEAP which can be quantified using an alkaline phosphatase detection reagent.
(§3) Cells were maintained in Dulbecco's Modified Eagle Media (DMEM) (containing Fetal Bovine Serum (FBS) heat inactivated (10%), Glutamax (2 mM), Penicillin/Streptomycin, Blasticidin (10 μg/ml), Zeocin (100 μg/ml) and Normocin (100 μg/ml)). On day one of the assay, Examples were prepared using 11-point half-log serial dilutions from a 10mM DMSO stock solution and 50 nl was spotted into 384-well Viewplates (PerkinElmer, cat #6007480). Positive control TLR7/8 agonist and negative control (DMSO, no Example) were also spotted within the assay plate and were used to determine percent effect during the analysis process. After resuspension in DMEM assay media containing FBS heat inactivated (10%), Glutamax (2 mM) and Penicillin/Streptomycin, 10,000 cells/20 μl/well were added to previously prepared plates. Plates were incubated overnight (16-20 hrs) at 37° C. in a 5% CO2 environment. Prewetted Microclime lids (Labcyte, LLS-0310) were used to prevent evaporation. On day two of the assay, QUANTI-Blue™ detection reagent was prepared by reconstituting QUANTI-Blue™ powder (InvivoGen, Rep-qb1) with 100 ml of sterile water and allowed to equilibrate to 37° C. for 15 minutes. 20 μl of QUANTI-Blue™ detection reagent was added to each well and plates were incubated at room temperature for 180 min. At the end of the incubation, plates were read on an Envision (Perkin Elmer) plate reader capturing absorbance at 650 nm.
(§4) Using Positive (TLR7/8 agonist) and Negative (DMSO) controls, the percent (%) effect was calculated for each Example using the following equation: effect=100−[100*{(Example−Positive Control)/(Negative Control−Positive Control)}]
(§5) The % effect at each concentration of each Example was calculated utilizing the ABase software suite (IBDS) and was relative to the amount of SEAP produced in the positive and negative control wells contained within each assay plate. The concentrations and % effect values for each Example were fit using a 4-parameter logistic model in ABase and the concentration of each Example that produced 50% response (EC50) was calculated.

[2] = target: T2, human toll like receptor 7 (hTLR7) (Homo sapiens, UniProt Q9NYK1); assay: hTLR7 cell functional assay (HEK-Blue hTLR7 SEAP reporter); type: cell-based; conditions: HEK293 cells stably overexpressing hTLR7, SEAP reporter; geometric mean when tested more than once
T2 construct: host or cells: HEK293 (HEK-Blue hTLR7)
T2 sequence (Q9NYK1 27-1049): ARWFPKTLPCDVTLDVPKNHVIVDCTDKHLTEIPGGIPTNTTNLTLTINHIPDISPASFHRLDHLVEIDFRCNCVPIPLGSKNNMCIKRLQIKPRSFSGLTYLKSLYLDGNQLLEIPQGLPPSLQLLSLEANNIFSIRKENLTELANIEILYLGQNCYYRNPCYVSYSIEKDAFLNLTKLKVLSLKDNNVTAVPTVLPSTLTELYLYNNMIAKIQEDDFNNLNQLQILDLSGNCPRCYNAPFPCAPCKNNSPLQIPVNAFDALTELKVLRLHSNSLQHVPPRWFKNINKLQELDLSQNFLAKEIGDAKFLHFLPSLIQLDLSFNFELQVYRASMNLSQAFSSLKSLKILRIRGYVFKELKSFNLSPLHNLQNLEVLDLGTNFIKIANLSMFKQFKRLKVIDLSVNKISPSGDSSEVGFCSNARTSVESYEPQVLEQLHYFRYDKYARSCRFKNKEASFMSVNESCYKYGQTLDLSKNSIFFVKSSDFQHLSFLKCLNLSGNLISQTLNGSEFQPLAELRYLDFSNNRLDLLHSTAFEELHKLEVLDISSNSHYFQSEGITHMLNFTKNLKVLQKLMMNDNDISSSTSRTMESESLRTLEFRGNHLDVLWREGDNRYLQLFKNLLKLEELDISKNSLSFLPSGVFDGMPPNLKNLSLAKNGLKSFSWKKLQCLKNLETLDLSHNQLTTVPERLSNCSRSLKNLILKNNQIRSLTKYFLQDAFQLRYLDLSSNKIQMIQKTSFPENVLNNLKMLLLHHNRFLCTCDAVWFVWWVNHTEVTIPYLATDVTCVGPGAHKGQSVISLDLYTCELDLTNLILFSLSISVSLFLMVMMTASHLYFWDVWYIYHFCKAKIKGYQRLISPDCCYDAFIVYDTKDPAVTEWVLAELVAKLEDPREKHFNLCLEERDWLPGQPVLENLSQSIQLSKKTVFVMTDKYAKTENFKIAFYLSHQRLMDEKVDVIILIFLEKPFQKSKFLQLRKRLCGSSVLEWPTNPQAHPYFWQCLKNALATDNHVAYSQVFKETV
Description: as §1, §2, §3, §4, §5

[3] = tested on: superficial basal cell carcinomas; conditions: marketed 5% cream (Aldara); cited from earlier work

| SMILES | pEC50 [1] | pEC50 [2] | 5-year clearance of superficial basal cell carcinomas [3] |
| --- | --- | --- | --- |
| CCCCCc1nc2c(N)nc3ccccc3c2n1CC(C)(CO)CO [Example 12, 2-((4-amino-2-pentyl-1H-imidazo[4,5-c]quinolin-1-yl)methyl)-2-methylpropane-1,3-diol] | 6.72 | 8.05 |  |
| COCCc1nc2c(N)nc3c(c2n1CC(C)(CO)CO)CCC3 [Example 17, 2-((4-amino-2-(2-methoxyethyl)-7,8-dihydrocyclopenta[b]imidazo[4,5-d]pyridin-1(6H)-yl)methyl)-2-methylpropane-1,3-diol] | 5.97 | 6.81 |  |
| COCCc1nc2c(N)nc3c(c2n1CC(C)(CO)CO)CCCC3 [Example 18, 2-((4-amino-2-(2-methoxyethyl)-6,7,8,9-tetrahydro-1H-imidazo[4,5-c]quinolin-1-yl)methyl)-2-methylpropane-1,3-diol] | 6.92 | 7.80 |  |
| CCOCc1nc2c(N)nc3c(c2n1CC(C)(CO)CO)CCCC3 [Example 5, 2-((4-amino-2-(ethoxymethyl)-6,7,8,9-tetrahydro-1H-imidazo[4,5-c]quinolin-1-yl)methyl)-2-methylpropane-1,3-diol] | 6.56 | 7.38 |  |
| CCOCc1nc2c(N)nc3c(c2n1CC(C)(CO)CO)CCC3 [Example 4, 2-((4-amino-2-(ethoxymethyl)-7,8-dihydrocyclopenta[b]imidazo[4,5-d]pyridin-1(6H)-yl)methyl)-2-methylpropane-1,3-diol] | 6.40 | 7.27 |  |
| CC(C)Cn1cnc2c(N)nc3ccccc3c21 [Imiquimod] |  |  | approximately 80% |
| CCCCc1nc2c(N)nc(C)c(C)c2n1CC(C)(CO)CO [Example 11, 2-((4-amino-2-butyl-6,7-dimethyl-1H-imidazo[4,5-c]pyridin-1-yl)methyl)-2-methylpropane-1,3-diol] | 6.80 | 7.89 |  |
| COCCc1nc2c(N)nc3ccccc3c2n1CC(C)(CO)CO [Example 19, 2-((4-amino-2-(2-methoxyethyl)-1H-imidazo[4,5-c]quinolin-1-yl)methyl)-2-methylpropane-1,3-diol] | 6.51 | 8.05 |  |

Source: US11976064B2, “Toll-like receptor agonists” (Pfizer Inc., priority 2019, dated 2024)
